Strand notation (5' to 3'): a small letter for the sugar, then the base; units joined by * are phosphorothioate-linked, units joined directly phosphodiester-linked; [ ] holds rarer units or linkages, { } end groups; capitals alone tell only the bases. e = 2'-O-(2-methoxyethyl) (MOE); [5mC] = 5-methylcytosine; d = 2'-deoxy (DNA)
Tested on: human Factor 11 mRNA
Assay: Antisense inhibition of human Factor 11 in HepG2 cells, lipofectin, 75 nM (Example 1)
Format: cell-based
Settings: 75 nM antisense oligonucleotide, ~24 h, relative to untreated control cells
Method: Antisense oligonucleotides targeted to a Factor 11 nucleic acid were tested for their effects on Factor 11 mRNA in vitro. Cultured HepG2 cells at a density of 10,000 cells per well were transfected using lipofectin reagent with 75 nM antisense oligonucleotide. After a treatment period of approximately 24 hours, RNA was isolated from the cells and Factor 11 mRNA levels were measured by quantitative real time PCR. Factor 11 mRNA levels were adjusted according to total RNA content, as measured by RIBOGREEN. Results are presented as percent inhibition of Factor 11, relative to untreated control cells.
The chimeric antisense oligonucleotides in Tables 1 and 2 were designed as 5-10-5 MOE gapmers. The gapmers are 20 nucleotides in length, wherein the central gap segment is comprised of 10 2′-deoxynucleotides and is flanked on both sides (in the 5′ and 3′ directions) by wings comprising 5 nucleotides each. Each nucleotide in the 5′ wing segment and each nucleotide in the 3′ wing segment has a 2′-MOE modification. The internucleoside linkages throughout each gapmer are phosphorothioate (P=S) linkages. All cytidine residues throughout each gapmer are 5-methylcytidines. “Target start site” indicates the 5′-most nucleotide to which the gapmer is targeted. “Target stop site” indicates the 3′-most nucleotide to which the gapmer is targeted. Each gapmer listed in Table 1 is targeted to SEQ TD NO: 1 (GENBANK Accession No. NM_000128.3) and each gapmer listed in Table 2 is targeted to SEQ TD NO: 2 (GENBANK Accession No. NT_022792.17, truncated from 19598000 to 19624000).

[1] = gapmers targeted to SEQ ID NO: 1
[2] = gapmers targeted to SEQ ID NO: 2

Substance	% inhibition [1] [%]	% inhibition [2] [%]
412258 (antisense eG*eT*eG*eT*eA*dG*dA*dT*dT*d[5mC]*d[5mC]*dT*dG*d[5mC]*dA*eA*eA*eA*eT*eG) [compound 412258]	44	
412259 (antisense eT*eT*eT*eT*e[5mC]*dA*dG*dG*dA*dA*dA*dG*dT*dG*dT*eA*eT*e[5mC]*eT*eT) [compound 412259]	37	
412260 (antisense e[5mC]*eA*e[5mC]*eA*eA*dA*dT*d[5mC]*dA*dT*dT*dT*dT*dT*d[5mC]*eA*eG*eG*eA*eA) [compound 412260]	27	
412261 (antisense eT*e[5mC]*e[5mC]*e[5mC]*eA*dA*dG*dA*dT*dA*dT*dT*dT*dT*dA*eA*eA*eT*eA*eA) [compound 412261]	3	
412262 (antisense eA*eA*eT*eG*eA*dG*dA*dT*dA*dA*dA*dT*dA*dT*dT*eT*eG*e[5mC]*eA*e[5mC]) [compound 412262]	34	
412263 (antisense eT*eG*eA*eA*eA*dG*d[5mC]*dT*dA*dT*dG*dT*dG*dG*dT*eG*eA*e[5mC]*eA*eA) [compound 412263]	33	
412264 (antisense e[5mC]*eA*e[5mC]*eA*e[5mC]*dT*dT*dG*dA*dT*dG*dA*dA*dT*dT*eG*eT*eA*eT*eA) [compound 412264]	27	
413460 (antisense eT*eA*e[5mC]*e[5mC]*eT*dT*dG*dA*dG*dA*dG*dA*dA*dT*dT*eG*e[5mC]*eT*eT*eG) [compound 413460]	40	
413461 (antisense eG*eT*e[5mC]*eA*eG*dA*dA*dA*dT*dA*dT*dA*d[5mC]*d[5mC]*dT*eT*eG*eA*eG*eA) [compound 413461]	39	
413462 (antisense eA*eT*e[5mC]*eT*eT*dA*dG*dT*dA*dT*dG*dT*d[5mC]*dA*dG*eA*eA*eA*eT*eA) [compound 413462]	12	
413463 (antisense eG*eA*eG*eT*e[5mC]*dA*d[5mC]*dA*d[5mC]*dA*dT*dT*d[5mC]*dA*d[5mC]*e[5mC]*eA*eG*eA*eA) [compound 413463]	74	
413464 (antisense eG*eT*eG*eA*eG*d[5mC]*dA*dT*dT*dG*d[5mC]*dT*dT*dG*dA*eA*eA*eG*eA*eA) [compound 413464]	42	
413465 (antisense e[5mC]*eT*eT*eA*eT*dT*dT*dG*dG*dT*dG*dT*dG*dA*dG*e[5mC]*eA*eT*eT*eG) [compound 413465]	80	
413466 (antisense eA*e[5mC]*eA*eT*eA*dA*dA*dT*dG*dT*d[5mC]*dT*dT*dT*dG*eT*eT*eG*e[5mC]*eA) [compound 413466]	79	
413470 (antisense eG*eT*eT*eA*eT*dA*dG*dT*dT*dT*dA*dT*dG*d[5mC]*d[5mC]*e[5mC]*eT*eT*e[5mC]*eA) [compound 413470]	72	
413471 (antisense eT*e[5mC]*eA*eG*eT*dA*dG*dA*d[5mC]*dA*dA*dA*dT*dG*dT*eT*eA*e[5mC]*eG*eA) [compound 413471]	67	
413472 (antisense eT*eG*eG*eG*eT*dG*dT*dG*d[5mC]*dT*dT*d[5mC]*dA*dG*dT*eA*eG*eA*e[5mC]*eA) [compound 413472]	99	
413473 (antisense eA*eG*e[5mC]*e[5mC]*eA*dG*dA*dT*dT*dA*dG*dA*dA*dA*dG*eT*eG*e[5mC]*eA*e[5mC]) [compound 413473]	80	
413475 (antisense eG*e[5mC]*e[5mC]*eA*eT*dT*d[5mC]*d[5mC]*dT*dG*dG*dG*dA*dA*dA*eA*eG*eA*eA*eG) [compound 413475]	80	
413477 (antisense eA*e[5mC]*eT*eG*eA*dA*dA*d[5mC]*d[5mC]*dA*dG*dA*dA*dA*dG*eA*eG*e[5mC]*eT*eT) [compound 413477]	54	
413478 (antisense eA*eG*eA*eA*eT*dG*dG*d[5mC]*dA*dG*dA*dA*d[5mC]*dA*d[5mC]*eT*eG*eG*eG*eA) [compound 413478]	53	
413479 (antisense eT*eG*eT*e[5mC]*eA*dT*dG*dG*dT*dA*dA*dA*dA*dT*dG*eA*eA*eG*eA*eA) [compound 413479]	40	
413480 (antisense eA*eA*eG*eA*eA*dA*dT*d[5mC]*dA*dG*dT*dG*dT*d[5mC]*dA*eT*eG*eG*eT*eA) [compound 413480]	71	

Substance	% inhibition [1] [%]	% inhibition [2] [%]
413483 (antisense eA*eA*e[5mC]*eT*eG*dG*d[5mC]*dA*dG*d[5mC]*dG*dG*dA*d[5mC]*dG*eG*e[5mC]*eA*eT*eT) [compound 413483]	78	
413484 (antisense e[5mC]*e[5mC]*eT*eT*eA*dA*dT*dG*dT*dG*dT*dA*dT*d[5mC]*d[5mC]*eA*eG*eA*eG*eA) [compound 413484]	74	
413485 (antisense eT*eG*eG*eT*eG*dG*dT*dA*d[5mC]*dA*d[5mC]*dT*d[5mC]*dA*dT*eT*eA*eT*e[5mC]*e[5mC]) [compound 413485]	68	
413486 (antisense eG*eG*e[5mC]*eT*eT*dG*dA*dT*dT*dT*dT*dG*dG*dT*dG*eG*eT*eA*e[5mC]*eA) [compound 413486]	83	
413487 (antisense eA*eA*e[5mC]*eG*eA*dT*d[5mC]*d[5mC]*dT*dG*dG*dG*d[5mC]*dT*dT*eG*eA*eT*eT*eT) [compound 413487]	57	
413488 (antisense eA*e[5mC]*eA*eG*eG*dT*dG*dT*d[5mC]*dT*d[5mC]*dT*dG*dA*dG*eT*eG*eG*eG*eT) [compound 413488]	49	
413489 (antisense e[5mC]*eA*e[5mC]*eT*eG*dG*dT*dT*dT*d[5mC]*d[5mC]*dA*dA*dT*dG*eA*eT*eG*eG*eA) [compound 413489]	68	
413490 (antisense e[5mC]*eT*eA*e[5mC]*e[5mC]*d[5mC]*d[5mC]*dA*dT*dA*dG*dA*dA*dA*d[5mC]*eA*eG*eT*eG*eA) [compound 413490]	57	
413491 (antisense eT*eT*eA*eG*eG*dT*dG*dA*d[5mC]*dT*d[5mC]*dT*dA*d[5mC]*d[5mC]*e[5mC]*e[5mC]*eA*eT*eA) [compound 413491]	73	
413492 (antisense eA*eG*eA*e[5mC]*eA*d[5mC]*dG*d[5mC]*dA*dA*dA*dA*dT*d[5mC]*dT*eT*eA*eG*eG*eT) [compound 413492]	68	
413493 (antisense eT*eT*eT*e[5mC]*eT*dT*dG*dA*dA*d[5mC]*d[5mC]*d[5mC]*d[5mC]*dA*dA*eA*eG*eA*eA*eA) [compound 413493]	65	
413494 (antisense eG*eT*eG*eG*eT*dT*dT*d[5mC]*d[5mC]*dA*dG*dT*dT*dT*d[5mC]*eA*eA*e[5mC]*eA*eA) [compound 413494]	70	
413495 (antisense eT*eT*eG*eG*e[5mC]*dT*dT*dT*d[5mC]*dT*dG*dG*dA*dG*dA*eG*eT*eA*eT*eT) [compound 413495]	58	
413496 (antisense eG*eG*e[5mC]*eA*e[5mC]*dA*dG*dA*dT*d[5mC]*dA*dT*d[5mC]*dT*dT*eA*eT*eG*eG*eG) [compound 413496]	72	
413497 (antisense eG*eA*eT*eT*e[5mC]*d[5mC]*dT*dG*d[5mC]*dA*dA*dA*dA*dT*dG*eG*eT*eG*eA*eA) [compound 413497]	39	
413498 (antisense eG*e[5mC]*eA*eG*eA*dG*dT*dG*dT*dA*dG*dA*dT*dT*d[5mC]*e[5mC]*eT*eG*e[5mC]*eA) [compound 413498]	60	
413499 (antisense eA*eT*e[5mC]*eA*eT*dT*dT*dT*dT*d[5mC]*dA*dG*dG*dA*dA*eA*eG*eT*eG*eT) [compound 413499]	52	
413500 (antisense eG*eT*eG*eA*eG*dA*d[5mC]*dA*dA*dA*dT*d[5mC]*dA*dA*dG*eA*e[5mC]*eT*eT*e[5mC]) [compound 413500]		15
413501 (antisense eT*eT*eA*eG*eT*dT*dT*dA*d[5mC]*dT*dG*dA*d[5mC]*dA*d[5mC]*eT*eA*eA*eG*eA) [compound 413501]		23
413502 (antisense e[5mC]*eT*eG*e[5mC]*eT*dT*dT*dA*dT*dG*dA*dA*dA*dA*dA*e[5mC]*e[5mC]*eA*eA*e[5mC]) [compound 413502]		22
413503 (antisense eA*eT*eA*e[5mC]*e[5mC]*dT*dA*dG*dT*dA*d[5mC]*dA*dA*dT*dG*eT*eA*eA*eA*eT) [compound 413503]		29
413504 (antisense eG*eG*e[5mC]*eT*eT*dG*dT*dG*dT*dG*dT*dG*dG*dT*d[5mC]*eA*eA*eT*eA*eT) [compound 413504]		54
413505 (antisense eT*eG*eG*eG*eA*dA*dA*dG*d[5mC]*dT*dT*dT*d[5mC]*dA*dA*eT*eA*eT*eT*e[5mC]) [compound 413505]		57
